According to ChEMBL document CHEMBL1201862, “PubChem BioAssay data set” (2004):
Calls of active or inactive are those of the source.

Assays:
[1] = molecular target: T1, E3 ubiquitin-protein ligase XIAP (Homo sapiens, UniProt P98170); experiment: Counter Screen using XIAP-Bir3 for Chemical Antagonists of Bir1/2 domains of IAP-family anti-apoptotic proteins. [Related pubchem assays (depositor defined):AID1018, AID1449, AID1514, AID1638, AID1749, AID1750, AID488957, AID488963]
[2] = molecular target: T1, E3 ubiquitin-protein ligase XIAP; experiment: XIAP antagonists, biochemical, IAP family, fluorescence polarization (AID 1018); type: functional
[3] = Luminescence Cell-Based Dose Confirmation HTS to Identify Inhibitors of Polyadenylation.; type: functional
[4] = C. albicans growth with fluconazole, confirmation, fluorescence, retest (AID 2467); type: functional, cell-based
[5] = molecular target: T2, Serine/threonine-protein phosphatase (Candida dubliniensis (strain CD36 / CBS 7987 / NCPF 3949 / NRRLY-17841) (Yeast), UniProt B9W6M3); experiment: calcineurin pathway inhibitors in yeast reporter, dose response, S. cerevisiae, CDRE-lacZ, luminescence, secondary (AID 2388); type: functional, cell-based;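 note: yeast reporter cells carrying a calcineurin-responsive lacZ construct stimulated with calcium chloride; luminescent beta-galactosidase reporter signal in whole cells rather than isolated phosphatase activity; potency for inhibition where a drop in reporter signal means calcineurin blockade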
T2 sequence (B9W6M3 whole entry): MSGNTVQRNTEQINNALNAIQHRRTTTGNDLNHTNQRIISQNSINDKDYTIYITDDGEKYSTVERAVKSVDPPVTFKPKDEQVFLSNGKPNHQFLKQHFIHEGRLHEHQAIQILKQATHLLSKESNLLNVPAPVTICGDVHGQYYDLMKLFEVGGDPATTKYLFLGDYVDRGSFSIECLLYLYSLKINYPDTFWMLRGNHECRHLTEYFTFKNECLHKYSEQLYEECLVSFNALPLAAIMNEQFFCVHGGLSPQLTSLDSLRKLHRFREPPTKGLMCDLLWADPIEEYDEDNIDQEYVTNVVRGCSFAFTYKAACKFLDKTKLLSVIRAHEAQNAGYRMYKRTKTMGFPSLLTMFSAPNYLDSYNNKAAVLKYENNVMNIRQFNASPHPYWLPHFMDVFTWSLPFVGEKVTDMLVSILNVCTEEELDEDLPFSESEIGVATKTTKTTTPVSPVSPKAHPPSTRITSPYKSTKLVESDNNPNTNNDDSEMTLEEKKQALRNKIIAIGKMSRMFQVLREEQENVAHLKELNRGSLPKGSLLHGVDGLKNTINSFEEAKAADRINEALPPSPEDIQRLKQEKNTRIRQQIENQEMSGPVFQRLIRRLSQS

[6] = NIH-3T3 fibroblast cytotoxicity, dose response, cytotoxicity control, cell-based, fluorescence, Alamar Blue, secondary assay (AID 2327); type: functional;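 note: NIH-3T3 mouse fibroblasts cultured with fluconazole at 8 µg/mL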
[7] = molecular target: ATP-dependent molecular chaperone HSP82 (Candida albicans (strain WO-1) (Yeast), UniProt C4YTQ8); experiment: loss of DOC-induced GRE-beta-galactosidase reporter signal, dose response, Hsp90 inhibitor project, S. cerevisiae, luminescence (AID 2400); type: functional, cell-based;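 note: beta-galactosidase luminescence from glucocorticoid response element reporter as proxy for Hsp90 function; inhibitor potency where signal loss means Hsp90 inhibition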
[8] = molecular target: Sphingosine 1-phosphate receptor 1 (Homo sapiens, UniProt P21453); experiment: Dose Response Cell-Based Assay for Agonists of the Sphingosine 1-Phosphate Receptor 1 (S1P1): Purchased Analogues. [Related pubchem assays: 1192, 373, 439 ]; type: functional
Sequence of Sphingosine 1-phosphate receptor 1 (P21453 whole entry): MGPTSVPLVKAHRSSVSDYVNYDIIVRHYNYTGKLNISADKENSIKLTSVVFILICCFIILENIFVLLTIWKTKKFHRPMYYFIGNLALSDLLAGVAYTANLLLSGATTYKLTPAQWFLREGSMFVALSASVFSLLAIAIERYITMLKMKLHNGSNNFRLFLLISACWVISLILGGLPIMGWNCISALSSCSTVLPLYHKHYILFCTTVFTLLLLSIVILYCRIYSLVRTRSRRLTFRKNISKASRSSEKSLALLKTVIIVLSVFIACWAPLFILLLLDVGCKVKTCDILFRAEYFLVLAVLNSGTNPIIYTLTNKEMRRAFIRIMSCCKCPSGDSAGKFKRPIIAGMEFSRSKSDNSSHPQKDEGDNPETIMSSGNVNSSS

[9] = molecular target: Sphingosine 1-phosphate receptor 3 (Homo sapiens, UniProt Q99500); experiment: Dose Response Cell-Based Assay for Agonists of the Sphingosine 1-Phosphate Receptor 3 (S1P3): Purchased Analogues. [Related pubchem assays: 373, 439 ]; type: functional
Sequence of Sphingosine 1-phosphate receptor 3 (Q99500 whole entry): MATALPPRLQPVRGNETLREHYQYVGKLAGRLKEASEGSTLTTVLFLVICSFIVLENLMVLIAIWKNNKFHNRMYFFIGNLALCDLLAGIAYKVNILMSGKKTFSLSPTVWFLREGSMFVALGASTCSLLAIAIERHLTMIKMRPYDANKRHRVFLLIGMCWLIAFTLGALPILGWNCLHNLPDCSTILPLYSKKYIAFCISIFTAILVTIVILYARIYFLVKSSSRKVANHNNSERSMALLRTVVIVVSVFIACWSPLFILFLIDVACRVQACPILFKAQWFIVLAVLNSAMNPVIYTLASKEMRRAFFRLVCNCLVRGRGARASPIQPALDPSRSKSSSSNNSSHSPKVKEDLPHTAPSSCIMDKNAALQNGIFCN

[10] = molecular target: T3, Sphingosine 1-phosphate receptor 2 (Homo sapiens, UniProt O95136); experiment: Dose Response Cell-Based Assay for Agonists of the Sphingosine 1-Phosphate Receptor 2 (S1P2): Purchased Analogues. [Related pubchem assays: 1192, 373, 439 ]; type: functional
T3 sequence (O95136 whole entry): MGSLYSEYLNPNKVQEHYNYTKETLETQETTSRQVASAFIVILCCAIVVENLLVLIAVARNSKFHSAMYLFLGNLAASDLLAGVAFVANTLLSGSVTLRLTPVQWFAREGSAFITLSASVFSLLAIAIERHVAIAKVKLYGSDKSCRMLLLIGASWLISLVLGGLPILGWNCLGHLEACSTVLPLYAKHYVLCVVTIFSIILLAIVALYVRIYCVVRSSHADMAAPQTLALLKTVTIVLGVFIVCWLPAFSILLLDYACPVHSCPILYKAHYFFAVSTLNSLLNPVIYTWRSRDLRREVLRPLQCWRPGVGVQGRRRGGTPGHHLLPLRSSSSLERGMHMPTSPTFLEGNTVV

NADPH oxidase 1 = NADPH oxidase 1 (Homo sapiens, UniProt Q9Y5S8); type: functional, cell-based;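 note: Cell-based assay with luminescence read-out, IC50 derived from inhibitor dose-response curves; intracellular ROS from endogenous NOX1 in intact HT29 colon cancer cells; potency of inhibitors that lower the ROS luminescence signal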
Sequence of NADPH oxidase 1 (Q9Y5S8 whole entry): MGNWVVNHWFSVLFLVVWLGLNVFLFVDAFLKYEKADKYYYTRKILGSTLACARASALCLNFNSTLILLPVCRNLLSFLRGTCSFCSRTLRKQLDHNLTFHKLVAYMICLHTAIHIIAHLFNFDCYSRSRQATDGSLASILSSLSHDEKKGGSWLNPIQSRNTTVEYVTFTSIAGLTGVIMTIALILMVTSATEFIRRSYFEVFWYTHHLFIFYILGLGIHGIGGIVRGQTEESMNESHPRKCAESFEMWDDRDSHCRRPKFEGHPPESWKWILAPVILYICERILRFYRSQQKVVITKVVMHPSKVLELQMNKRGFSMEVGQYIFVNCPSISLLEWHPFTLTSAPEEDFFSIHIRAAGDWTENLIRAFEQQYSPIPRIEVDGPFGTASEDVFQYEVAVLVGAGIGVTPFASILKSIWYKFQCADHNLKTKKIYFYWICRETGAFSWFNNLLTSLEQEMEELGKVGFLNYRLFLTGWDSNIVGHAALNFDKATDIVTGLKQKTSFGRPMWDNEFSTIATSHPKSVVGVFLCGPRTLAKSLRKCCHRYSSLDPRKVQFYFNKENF

[11] = molecular target: T3, Sphingosine 1-phosphate receptor 2; experiment: Dose Response Cell Based Assay for Agonists of the S1P2 Receptor of Purchased Analogues. [Related pubchem assays: 729, 843, 854, 736 ]; type: functional
Estrogen receptor beta = Estrogen receptor beta (Homo sapiens, UniProt Q92731);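 note: recombinant ER-beta bound to coactivator SRC1 peptide in presence of estradiol agonist; inhibitors block coactivator peptide binding and lower the FRET signal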
Sequence of Estrogen receptor beta (Q92731 whole entry): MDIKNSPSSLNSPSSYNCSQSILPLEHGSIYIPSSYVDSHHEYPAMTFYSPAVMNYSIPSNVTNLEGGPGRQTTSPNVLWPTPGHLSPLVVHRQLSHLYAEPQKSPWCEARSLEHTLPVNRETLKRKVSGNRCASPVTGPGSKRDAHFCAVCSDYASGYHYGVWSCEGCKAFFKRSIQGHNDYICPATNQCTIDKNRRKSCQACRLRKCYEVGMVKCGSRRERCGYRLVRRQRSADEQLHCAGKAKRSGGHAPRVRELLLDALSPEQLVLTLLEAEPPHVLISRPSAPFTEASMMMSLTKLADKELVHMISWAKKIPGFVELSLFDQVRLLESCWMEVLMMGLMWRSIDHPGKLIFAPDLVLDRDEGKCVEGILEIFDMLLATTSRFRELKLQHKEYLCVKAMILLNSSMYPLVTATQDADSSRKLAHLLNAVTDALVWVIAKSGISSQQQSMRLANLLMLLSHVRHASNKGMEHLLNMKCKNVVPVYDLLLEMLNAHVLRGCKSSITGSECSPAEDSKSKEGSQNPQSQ

Estrogen receptor [12] = molecular target: T4, Estrogen receptor (Homo sapiens, UniProt P03372);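 note: potency for inhibiting coactivator peptide recruitment to the receptor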
T4 sequence (P03372 whole entry): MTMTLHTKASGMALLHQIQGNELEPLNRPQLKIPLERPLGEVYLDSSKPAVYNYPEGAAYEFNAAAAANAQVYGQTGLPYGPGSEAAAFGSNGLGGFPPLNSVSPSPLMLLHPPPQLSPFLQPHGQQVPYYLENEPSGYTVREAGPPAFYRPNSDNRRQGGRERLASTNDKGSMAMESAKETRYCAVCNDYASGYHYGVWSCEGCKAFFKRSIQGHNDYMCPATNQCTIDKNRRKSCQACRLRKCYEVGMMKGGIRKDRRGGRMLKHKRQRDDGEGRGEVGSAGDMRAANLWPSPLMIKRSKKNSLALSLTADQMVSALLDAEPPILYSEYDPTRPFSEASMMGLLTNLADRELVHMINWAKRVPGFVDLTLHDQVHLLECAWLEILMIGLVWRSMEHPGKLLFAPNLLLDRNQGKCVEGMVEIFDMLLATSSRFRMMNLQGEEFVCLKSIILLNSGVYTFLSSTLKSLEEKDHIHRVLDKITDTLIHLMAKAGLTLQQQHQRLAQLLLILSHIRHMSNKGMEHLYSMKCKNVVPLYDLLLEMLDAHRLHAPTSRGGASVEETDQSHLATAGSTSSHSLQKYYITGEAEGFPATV

Procathepsin L = Procathepsin L (Homo sapiens, UniProt P07711); experiment: cathepsin L inhibitors, dose response, counter-screen for M1/M17 aminopeptidase inhibitor project, biochemical, QFRET, 1536-well (AID 2214)
Sequence of Procathepsin L (P07711 whole entry): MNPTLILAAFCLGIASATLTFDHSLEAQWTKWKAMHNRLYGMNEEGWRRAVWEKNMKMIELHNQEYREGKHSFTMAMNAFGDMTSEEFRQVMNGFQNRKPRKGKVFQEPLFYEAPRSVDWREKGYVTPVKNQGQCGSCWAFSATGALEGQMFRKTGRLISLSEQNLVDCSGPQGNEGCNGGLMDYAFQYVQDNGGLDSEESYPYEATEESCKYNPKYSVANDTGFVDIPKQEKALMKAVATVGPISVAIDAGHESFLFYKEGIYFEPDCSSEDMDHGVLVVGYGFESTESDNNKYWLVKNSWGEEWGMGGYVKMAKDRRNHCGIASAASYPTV

Aspartyl aminopeptidase = Aspartyl aminopeptidase (Plasmodium falciparum 3D7, UniProt Q8I2J3); experiment: Counterscreen for inhibitors of M1 and M17 aminopeptidases: QFRET-based biochemical high throughput dose response assay for inhibitors of the Plasmodium falciparum M18 Aspartyl Aminopeptidase (PFM18AAP). [Related PubChem assays: 1619 (Screening assay (M17LAP inhibitors).), 1445 (Screening assay (M1AAP inhibitors).)]
Aminopeptidase N = molecular target: T5, Aminopeptidase N (Plasmodium falciparum FcB1/Columbia, UniProt O96935); experiment: P. falciparum M1AAP inhibitors, biochemical, fluorogenic H-Leu-NHMec substrate, 1536-well (AID 1445); parameters: species or system Plasmodium falciparum 3D7, 3D7
T5 sequence (O96935 whole entry): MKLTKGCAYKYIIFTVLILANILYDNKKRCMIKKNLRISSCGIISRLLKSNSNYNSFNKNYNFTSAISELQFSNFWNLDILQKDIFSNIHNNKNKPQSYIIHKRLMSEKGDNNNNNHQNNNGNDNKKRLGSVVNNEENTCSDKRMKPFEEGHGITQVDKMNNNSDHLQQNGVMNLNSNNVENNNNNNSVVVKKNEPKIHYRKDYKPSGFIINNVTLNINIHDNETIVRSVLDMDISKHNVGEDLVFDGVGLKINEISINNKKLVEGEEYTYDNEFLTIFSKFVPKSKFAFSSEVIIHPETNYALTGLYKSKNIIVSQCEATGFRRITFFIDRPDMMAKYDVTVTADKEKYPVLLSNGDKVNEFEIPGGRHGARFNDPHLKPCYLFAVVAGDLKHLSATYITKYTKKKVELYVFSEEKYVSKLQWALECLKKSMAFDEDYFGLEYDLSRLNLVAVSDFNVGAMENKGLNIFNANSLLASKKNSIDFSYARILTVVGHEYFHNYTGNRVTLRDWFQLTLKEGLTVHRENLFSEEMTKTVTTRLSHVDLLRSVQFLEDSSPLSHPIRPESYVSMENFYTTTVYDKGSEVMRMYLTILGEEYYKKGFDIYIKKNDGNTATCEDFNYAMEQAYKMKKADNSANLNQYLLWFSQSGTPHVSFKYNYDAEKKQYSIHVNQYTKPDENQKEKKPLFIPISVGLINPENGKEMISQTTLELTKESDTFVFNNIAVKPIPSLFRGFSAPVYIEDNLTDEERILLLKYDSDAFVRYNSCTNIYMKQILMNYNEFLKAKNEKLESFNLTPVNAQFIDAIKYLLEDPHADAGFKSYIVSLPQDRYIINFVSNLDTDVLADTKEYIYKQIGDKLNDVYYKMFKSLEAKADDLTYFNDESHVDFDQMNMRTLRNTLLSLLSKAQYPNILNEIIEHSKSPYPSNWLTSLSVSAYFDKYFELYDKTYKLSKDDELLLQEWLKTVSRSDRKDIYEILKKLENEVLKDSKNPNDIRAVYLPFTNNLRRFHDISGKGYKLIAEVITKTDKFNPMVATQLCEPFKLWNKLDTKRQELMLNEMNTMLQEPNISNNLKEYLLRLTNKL

[13] = Luminescence Cell-Based Dose Retest to Confirm Inhibitors of Cancer Stem Cells. [Related pubchem assays (depositor defined):AID2717, AID2721]; type: functional; details: Homo sapiens
[14] = cytotoxicity in HEK-293T cells, dose response, cytotoxicity control for TCR NF-kB inhibitor project, luminescence, T-cell screen hits (AID 489026); type: functional, cell-based;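 note: cells exposed to compound about 14 hours before the viability readout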
[15] = Luminescence-based dose response cell-based high throughput screening assay for cytotoxic compounds using the IEC-6 intestinal epithelial cell line. [Related pubchem assays: 1858 (Summary AID.), 1825 (Counterscreen.), 1907 (Confirmation screen.)]; type: functional
[16] = molecular target: Inward rectifier potassium channel 2 (Mus musculus, UniProt P35561); experiment: Manual electrophysiological patch clamp assay for SAR compounds that inhibit/block inward-rectifying potassium ion channel Kir2.1. [Related pubchem assays: 1843 (Summary assay for Kir2.1 inhibitor assays.), 1672 (Primary HTS of 305616 compounds where 2592 were identified as active.)]; type: functional
Sequence of Inward rectifier potassium channel 2 (P35561 whole entry): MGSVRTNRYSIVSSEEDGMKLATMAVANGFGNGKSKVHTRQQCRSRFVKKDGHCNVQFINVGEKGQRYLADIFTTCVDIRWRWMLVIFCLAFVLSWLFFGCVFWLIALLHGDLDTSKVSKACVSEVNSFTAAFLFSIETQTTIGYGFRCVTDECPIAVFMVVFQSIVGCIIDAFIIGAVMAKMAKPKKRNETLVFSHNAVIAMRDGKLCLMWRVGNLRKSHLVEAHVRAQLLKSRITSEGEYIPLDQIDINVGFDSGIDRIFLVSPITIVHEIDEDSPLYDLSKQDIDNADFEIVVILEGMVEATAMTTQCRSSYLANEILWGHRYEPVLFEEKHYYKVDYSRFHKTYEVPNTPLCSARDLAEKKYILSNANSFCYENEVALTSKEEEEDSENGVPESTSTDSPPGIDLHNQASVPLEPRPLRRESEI

[17] = molecular target: Potassium voltage-gated channel subfamily KQT member 2 (Rattus norvegicus, UniProt O88943, W236L); experiment: KCNQ2 channel potentiators, dose response, mechanism study for KCNQ2 potentiator project, cell-based, automated electrophysiology (AID 2603); type: functional
Sequence of Potassium voltage-gated channel subfamily KQT member 2 (O88943 whole entry W236L, the tested form may be a part): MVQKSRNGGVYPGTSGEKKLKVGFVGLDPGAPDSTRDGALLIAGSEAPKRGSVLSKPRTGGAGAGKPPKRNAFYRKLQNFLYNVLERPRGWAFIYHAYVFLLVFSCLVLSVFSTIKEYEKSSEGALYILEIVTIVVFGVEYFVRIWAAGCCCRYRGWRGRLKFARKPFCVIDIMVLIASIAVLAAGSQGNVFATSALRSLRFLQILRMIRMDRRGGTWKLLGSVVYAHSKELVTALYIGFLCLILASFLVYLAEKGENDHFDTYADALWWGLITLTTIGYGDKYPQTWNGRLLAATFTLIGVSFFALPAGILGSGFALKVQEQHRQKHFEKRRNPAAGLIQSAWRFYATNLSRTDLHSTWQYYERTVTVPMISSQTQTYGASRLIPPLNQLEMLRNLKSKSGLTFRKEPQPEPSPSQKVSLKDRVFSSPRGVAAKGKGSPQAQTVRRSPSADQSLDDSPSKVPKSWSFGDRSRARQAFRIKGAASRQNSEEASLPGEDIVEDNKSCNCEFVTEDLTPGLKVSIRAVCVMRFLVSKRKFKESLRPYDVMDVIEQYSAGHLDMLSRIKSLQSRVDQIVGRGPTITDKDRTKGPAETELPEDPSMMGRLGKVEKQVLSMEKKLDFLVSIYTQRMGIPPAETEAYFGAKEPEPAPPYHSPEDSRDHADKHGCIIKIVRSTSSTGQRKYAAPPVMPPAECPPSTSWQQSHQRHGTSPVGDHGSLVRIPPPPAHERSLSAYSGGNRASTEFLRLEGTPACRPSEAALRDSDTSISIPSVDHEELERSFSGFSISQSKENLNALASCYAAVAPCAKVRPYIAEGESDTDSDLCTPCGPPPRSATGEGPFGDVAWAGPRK

Estrogen receptor [18] = molecular target: T4, Estrogen receptor; experiment: potentiators of ERα–SRC-1 coactivator binding, dose response, biochemical, TR-FRET, ERα LBD (AID 737)
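Throughout, for AC50: cells exposed to compound for roughly 70 hours or longer before luminescence read.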

T1 sequence (P98170 whole entry): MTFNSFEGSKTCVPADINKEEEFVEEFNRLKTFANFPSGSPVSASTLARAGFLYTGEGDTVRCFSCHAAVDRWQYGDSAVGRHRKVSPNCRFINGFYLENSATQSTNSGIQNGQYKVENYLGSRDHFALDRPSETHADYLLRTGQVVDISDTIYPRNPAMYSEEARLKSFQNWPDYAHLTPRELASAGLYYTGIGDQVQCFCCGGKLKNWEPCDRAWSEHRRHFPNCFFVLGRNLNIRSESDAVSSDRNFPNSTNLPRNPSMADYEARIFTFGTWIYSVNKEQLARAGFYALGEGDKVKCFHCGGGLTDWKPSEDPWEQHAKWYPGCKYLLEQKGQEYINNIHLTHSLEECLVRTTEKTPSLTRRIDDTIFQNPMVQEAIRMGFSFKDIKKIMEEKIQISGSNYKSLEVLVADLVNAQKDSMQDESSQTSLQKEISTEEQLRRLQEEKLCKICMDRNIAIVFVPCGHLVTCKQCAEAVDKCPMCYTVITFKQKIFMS

Cc1ccc(NC(=O)CNC2CCS(=O)(=O)C2)cc1C (stereo not drawn)
IC50 [1]: > 100 µM (inactive) | IC50 [2]: > 100 µM (not active)

Cc1ccc(NC(=O)c2sc3nc(N)c(C#N)cc3c2N)cc1
EC50 [3]: 15.2 µM (active) | EC50 [4]: 1.2 µM (active) | EC50 [5]: > 180 µM (inactive) | EC50 [6]: > 150 µM (inactive) | EC50 [7]: > 150 µM (inactive)

Cc1cc(C(=O)N(C)C2CCCCC2)no1
EC50 [8]: > 50 µM (not active) | EC50 [9]: > 50 µM (not active) | EC50 [10]: > 10 µM (not active)

COc1ccc(NC(=O)Nc2ccc3c(c2)CCN3S(=O)(=O)c2ccccc2)cc1
IC50 (NADPH oxidase 1): > 17 µM (not active)

Cc1nc(C)c(C(=O)OCC(=O)c2cc(C)n(Cc3ccccc3)c2C)s1
EC50 [11]: > 30 µM (not active)

O=C(NCc1ccco1)c1cc2cc3ccc(Cl)cc3nc2o1
IC50 (Estrogen receptor beta): > 50 µM (not active) | IC50 (Estrogen receptor [12]): 17.7 µM (active)

COc1ccc(C2CC(c3c(-c4ccccc4)c4cc(Cl)ccc4[nH]c3=O)=NN2C(=O)CCC(=O)O)cc1 (stereo not drawn)
IC50 (Procathepsin L): > 59.6 µM (not active) | IC50 (Aspartyl aminopeptidase): > 73.5 µM (not active) | IC50 (Aminopeptidase N): 4.93 µM (active)

COc1ccc(NS(=O)(=O)c2cc(-c3cnc(C4CC4)o3)ccc2C)cc1
AC50 [13]: 0.405 µM (active) | IC50 [14]: 70.5 µM (inactive) | IC50 [15]: 2.08 µM (active)

COc1ccc(CNCc2ccc(Cl)cc2)cc1
IC50 [16]: 0.711 µM (active)

CCOc1ccccc1NC(=O)NC(C)c1ccc2c(c1)OCO2 (stereo not drawn)
EC50 [17]: 1.51 µM (active)

COc1cccc(C2CC(c3ccc(F)cc3)Nc3nc(N)nn32)c1 (stereo not drawn)
EC50 (Estrogen receptor [18]): 6.71 µM (not active)
